Laboratory results as given in patent US7507733B2, “11b-HSD1 inhibitors for the treatment of diabetes” (Hoffmann-La Roche Inc., priority 2004, dated 2009).

Assays:
[1] = target: T1, 11beta-HSD1 (Homo sapiens, UniProt P28845); assay: Microsome assay: cortisone to cortisol conversion, ELISA detection; format: biochemical; parameters: The cDNA encoding the human 11beta-HSD1 protein was cloned into the expression vector pcDNA3; made in house; host or cells: HEK293 cells (ATCC CRL-1573), transient transfection; microsomal fraction; conditions: microsomes from HEK293 cells transiently expressing human 11beta-HSD1; 60 min, 37° C.; Cortisone 50-200 nM, NADPH 1 mM; read-out: h 11-beta-HSD 1 IC50
Method: The cDNA encoding the human 11beta-HSD1 protein was cloned into the expression vector pcDNA3 ([…]). This construct (for details see Alex Odermatt et al.; J Biol Chem., 1999, Vol. 274, Issue 40, 28762-28770) was used to transiently express the protein in HEK293 cells (ATCC number: CRL-1573, described in Graham, F. L., Smiley, J., Russell, W. C., Nairn, R.; (1977)) using lipofectamine. 48 h after transfection cells were washed twice with ice-cold PBS (Phsophate buffered Saline). To 1 volume of cell suspension in PBS 2 volumes of ice-cold lysis buffer (50 mM Tris; pH7.5; 1 mM EDTA; 100 mM NaCl) were added. The cells were lysed by Potter-homogenization (20 strokes). The resulting homogenate was sonicated with a tip sonicator (10% output; 2×30 sec.) and cleared by a low speed centrifugation (10 min×9000 g; 4° C.). The microsomal fraction was collected by a high speed centrifugation (60 min×110,000 g). […]
Microsomes isolated from HEK293 cells transiently expressing human 11beta-HSD1 (for details see above) were incubated in assay buffer (100 mM NaCl; 1 mM EDTA; 1 mM EGTA; 1 mM MgCl; 250 mM Sucrose; 20 mM Tris pH 7.4; Cortisone 50-200 nM and NADPH 1 mM) together with different concentrations of test substances. […] The amount of Cortisol produced in this assay was determined using a commercially available, ELISA-based Cortisol-detection kit (Distributed by Assay Design, Inc.). […]

[2] = target: T1, 11beta-HSD1; parameters: host or cells: human subjects (in vivo); conditions: treatment of humans with carbenoxolone; cited from earlier work

T1 sequence (P28845 whole entry): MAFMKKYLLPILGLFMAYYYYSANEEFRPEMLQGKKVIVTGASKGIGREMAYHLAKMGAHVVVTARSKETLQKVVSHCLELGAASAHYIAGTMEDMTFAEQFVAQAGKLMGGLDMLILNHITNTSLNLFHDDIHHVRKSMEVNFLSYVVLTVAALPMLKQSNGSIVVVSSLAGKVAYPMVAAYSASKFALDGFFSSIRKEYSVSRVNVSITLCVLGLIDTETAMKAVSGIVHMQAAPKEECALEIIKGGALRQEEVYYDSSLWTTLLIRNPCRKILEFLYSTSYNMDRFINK

IC50 [1] [nM]	Structure (SMILES)	effect on insulin sensitivity [2]
167	CC(C)c1nccc(NS(=O)(=O)c2ccc3ccccc3c2)n1 [Example 26, Naphthalene-2-sulfonic acid (2-isopropyl-pyrimidin-4-yl)-amide]	
20	O=S(=O)(Nc1ccnc(C2CC2)n1)c1ccc(-c2ccccc2)cc1 [Example 5, Biphenyl-4-sulfonic acid (2-cyclopropyl-pyrimidin-4-yl)-amide]	
	CC1(C)[C@@H](OC(=O)CCC(=O)O)CC[C@]2(C)[C@H]3C(=O)C=C4[C@@H]5C[C@@](C)(C(=O)O)CC[C@]5(C)CC[C@@]4(C)[C@]3(C)CC[C@@H]12 [carbenoxolone]	increase in insulin sensitivity
